Columns and labels:
A431 cells (EGFR WT) = experiment: Cell antiproliferation experiment (1), A431 cells, CellTiter Glo; assay type: cell-based; conditions: Homo sapiens, A-431, 72 h, read-out: anti-proliferation effect on cells A431 EGFR WT IC50
Procedure: 1) Cell Culture and Passage
(1) A431 medium: 88% DMEM+10% fetal bovine serum+1% L-glutamine+1% double-antibody
(2) A431 cells were isolated and passaged every 3-4 days, wherein the number of the cells for 3-day passage was 5e6 cells per T75 culture flask, and the number of the cells for 4-day passage was 3e6 cells per T75 culture flask.
2) Day 1: Preparation of Cell Plate
(1) Phosphate buffer, trypsin, and a culture medium were placed in a water bath at 37° C. to preheat.
(2) The original medium was removed from the cell culture flask and washed once with 6 mL of PBS.
(3) 5 mL of phosphate buffer was pipetted into the culture flask to rinse the cells (passage 17), and then the liquid was discarded.
(4) The cell culture flask was added with 3.5 mL of trypsin, and shaken gently, trypsin was removed after fully contact with the cells, and then the culture flask was placed in an incubator containing 5% CO2 at 37° C. for about 1 minute;
(5) The cells were resuspended in 10 mL cell culture medium, and about 0.6 mL of cell suspension was take out for counting (ViCell XR);
(6) The cell suspension was diluted with the medium to the cell density of 5e4 cells per ml, which was required for plating (cell concentration: 2500 cells per well);
(7) 100 μL of phosphate buffer solution was added to each well around the cell plate, while 50 μL of the cell suspension was added to other wells, and the plate was incubated overnight in a incubator containing 5% CO2 at 37° C.
(1) 9 μL of the compound (concentration: 1 mM) was added into a shallow well plate for Echo.
(2) The shallow well plate was centrifuged at 1000 rpm for 10 s and the cell plate was removed from the incubator.
(3) According to the layout of the microplate, the compounds was diluted with a three-fold concentration gradient using Echo, each compound was diluted to 10 concentration gradients and 250 nL of the diluted compounds was respectively added to the cell plate, and then the cell plate was returned to the incubator and further incubated for 3 days.
4) Day 5: Adding CTG and Reading the Plate
(1) After incubation for 72 h, 25 μL of CellTiter Glo was added to each well of the cell plate, followed by shaking the plate for 10 min in the dark.
(2) The plate was read on Envision.
Data analysis: By computer fitting, the corresponding concentration of the compound at 50% inhibition rate was read as the IC50 of the compound for inhibiting cell activity.

[1] = test system: Ba/F3 (Δ19del/T790M/C797S) xenograft; experiment: In vivo efficacy (1): Ba/F3 (Δ19del/T790M/C797S) subcutaneous xenograft (CDX) in BALB/c nude mice; conditions: for TGI (the tumor inhibition value): 45 mg/kg oral daily, 13 consecutive days;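 on all read-outs here: female nude mice, dosing begun at mean tumor size near 80–120 mm^3, tumors measured by caliper twice weekly, volume in mm^3 computed as 0.5×long×short diameter squared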
Procedure: BALB/c nude mice, female, 6-8 weeks old, 18-20 g of body weight, were housed in SPF-grade environment, and each cage was individually ventilated (5 mice per cage). […] A total of 48 mice purchased from Beijing Weitonglihua company were used for the study. Each mouse was implanted with cells at the right flank, for tumor growth. The experiment was started when the average tumor volume reached approximately 80-120 mm^3. […] Tumor volume was measured twice a week with a two-dimensional caliper, measured in mm^3 and calculated by the following formula: V=0.5a×b^2, wherein a and b are the long and short diameters of the tumor, respectively. Antitumor efficacy was determined by dividing the average increase of the tumor volume of the animals treated with the compound by the average increase of the tumor volume of the untreated animals.

[2] = test system: pEGFR Ba/F3 (EGFR Δ19del/T790M/C797S) cells; experiment: Cell phosphorylation inhibition experiment, pEGFR Ba/F3 (EGFR Δ19del/T790M/C797S); assay type: cell-based; conditions: Ba/F3 EGFR; Ba/F3 cells, EGF stimulated; read-out: Effect on cellular EGFR phosphorylation Ba/F3(Δ19del/T790M/C797S) IC50
Procedure: The test compounds and reference compounds were diluted with 100% DMSO to 10 mM or 1 mM, and then a gradient dilution was performed by using Echo, 150 nL per well, with a three-fold concentration gradient and a ten-point dose response curve. The final concentration of the compounds was 100 μM or 10 μM. The suspension cells was centrifuged at 1000 rp for 5 minutes, suspend in Hanks' balanced salt solution, and added to a 384-well plate containing the compounds at 10 L/120K/well (the cell density of 1.2×10^7), followed by centrifugation at 1200 rpm for 30 s and incubation at 37° C. for 30 min. 5 μL of EGF (which has been diluted with 0.1% BSA Hanks' balanced salt solution) was added to each well, in which the final concentration of EGF was 1 μM. The plate was centrifuged at 1200 rpm for 30 s and incubated at 37° C. for 20 min. 5 μL of 4× lysis buffer containing blocking solution was added to each well, and then the plate was centrifuged at 1200 rpm for 30 s, and incubated at 37° C. for 30 min.

PC-9 (Δ19del) xenograft = experiment: In vivo pharmacodynamics study (2): PC-9 (Δ19del) subcutaneously transplanted tumor in mouse; conditions: 50 mg/kg (days 0-9); for Tumor volume Day 0 / Tumor volume Day 2 / Tumor volume Day 6 / Tumor volume Day 9 / Tumor volume Day 13 / Tumor volume Day 16 / Tumor volume Day 20 / Tumor volume Day 23: 25 mg/kg (days 10-21) oral once a day
Procedure: 1. Cell culture: lung cancer PC-9 cells were monolayer cultured in vitro, culture conditions: RPMI-1640 (cell culture medium) plus 10% fetal bovine serum, 100 U/mL penicillin and 100 μg/mL streptomycin, culture in a 5% CO2 incubator at 37° C. The cells were conventionally digested with trypsin-EDTA twice a week for passage. When the cell saturation was 80%-90%, and the number reached the requirements, the cells were collected and counted. The density was 5×10^6 cells.
2. Cell inoculation: 0.2 mL (containing 5×10^6 cells) of PC-9 cell suspension (PBS: Matrigel=1:1) was subcutaneously inoculated into the right back of each mouse, with a total of 64 mice. On Day 7 after inoculation, when the average tumor volume measured reached 169 mm^3, the animals were randomly hierarchically grouped based on tumor volume and animal weight, and started to administrate each group. PBS was a phosphate buffer solution, and Matrigel was a matrix.
3. Administration: dosage: Days 0-9: 50 mg/kg; Days 10-21: 25 mg/kg; oral administration; administration frequency: once a day×3 weeks.
Tumor Measurement and Experimental Indicators
Tumor diameter was measured twice a week with a vernier caliper.
The antitumor effect of the compound was evaluated by TGI (%).
The relative tumor volume (RTV) was calculated according to the results of tumor measurement. The calculation formula was RTV=Vt/V0, wherein V0 was the tumor volume measured during group administration (i.e., DO), and Vt was the tumor volume of the corresponding mice measured at a certain time. The data on the same day were taken for TRTV and CRTV.
TGI (%) reflected tumor growth inhibition rate.
After the end of the experiments, the tumor weight would be measured and the TGI (%) was calculated.

SMILES | IC50 (A431 cells (EGFR WT)) | Tumor volume Day 0 ([1]; 5 mg/kg/day oral) | Tumor volume Day 2 ([1]; 5 mg/kg/day oral) | Tumor volume Day 5 ([1]; 5 mg/kg/day oral) | Tumor volume Day 8 ([1]; 5 mg/kg/day oral) | Tumor volume Day 10 ([1]; 5 mg/kg/day oral) | Tumor volume Day 12 ([1]; 5 mg/kg/day oral) | Tumor volume Day 13 ([1]; 5 mg/kg/day oral) | Tumor volume Day 0 ([1]; 15 mg/kg/day oral) | Tumor volume Day 2 ([1]; 15 mg/kg/day oral) | Tumor volume Day 5 ([1]; 15 mg/kg/day oral) | Tumor volume Day 8 ([1]; 15 mg/kg/day oral) | Tumor volume Day 10 ([1]; 15 mg/kg/day oral) | Tumor volume Day 12 ([1]; 15 mg/kg/day oral) | Tumor volume Day 13 ([1]; 15 mg/kg/day oral) | TGI (the tumor inhibition value) [1] | Tumor volume Day 0 ([1]; 45 mg/kg/day oral) | Tumor volume Day 2 ([1]; 45 mg/kg/day oral) | Tumor volume Day 5 ([1]; 45 mg/kg/day oral) | Tumor volume Day 8 ([1]; 45 mg/kg/day oral) | further results
COc1cc(N2CCC(N3CCN(C)CC3)CC2)c(C)cc1Nc1ncc(Br)c(Nc2ccc3nccnc3c2P(C)(C)=O)n1 [Compound 34] | 154 nM | 84 mm^3 | 108 mm^3 | 212 mm^3 | 395 mm^3 | 505 mm^3 | 748 mm^3 | 881 mm^3 | 84 mm^3 | 76 mm^3 | 107 mm^3 | 126 mm^3 | 176 mm^3 | 292 mm^3 | 326 mm^3 | 101% | 84 mm^3 | 56 mm^3 | 32 mm^3 | 35 mm^3 | Tumor volume Day 10 ([1]; 45 mg/kg/day oral): 42 mm^3; Tumor volume Day 12 ([1]; 45 mg/kg/day oral): 73 mm^3; Tumor volume Day 13 ([1]; 45 mg/kg/day oral): 68 mm^3; IC50 [2]: 19 nM; Tumor volume Day 0 (PC-9 (Δ19del) xenograft): 185 mm^3; Tumor volume Day 2 (PC-9 (Δ19del) xenograft): 198 mm^3; Tumor volume Day 6 (PC-9 (Δ19del) xenograft): 92 mm^3; Tumor volume Day 9 (PC-9 (Δ19del) xenograft): 75 mm^3; Tumor volume Day 13 (PC-9 (Δ19del) xenograft): 40 mm^3; Tumor volume Day 16 (PC-9 (Δ19del) xenograft): 45 mm^3; Tumor volume Day 20 (PC-9 (Δ19del) xenograft): 76 mm^3; Tumor volume Day 23 (PC-9 (Δ19del) xenograft): 111 mm^3; TGI (PC-9 (Δ19del) xenograft; day 23, 25 mg/kg (days 10-21) oral): 100%
CCc1cc(Nc2ncc(Br)c(Nc3ccc4nccnc4c3P(C)(C)=O)n2)c(OC)cc1N1CCC(N2CCN(C)CC2)CC1 [Compound 41] | 245 nM | 84 mm^3 | 103 mm^3 | 203 mm^3 | 348 mm^3 | 485 mm^3 | 707 mm^3 | 814 mm^3 | 84 mm^3 | 68 mm^3 | 69 mm^3 | 82 mm^3 | 115 mm^3 | 146 mm^3 | 211 mm^3 | 109% | 84 mm^3 | 47 mm^3 | 24 mm^3 | 7 mm^3 | Tumor volume Day 10 ([1]; 45 mg/kg/day oral): 4 mm^3; Tumor volume Day 12 ([1]; 45 mg/kg/day oral): 0 mm^3; Tumor volume Day 13 ([1]; 45 mg/kg/day oral): 0 mm^3; IC50 [2]: 25 nM; Tumor volume Day 0 (PC-9 (Δ19del) xenograft): 184 mm^3; Tumor volume Day 2 (PC-9 (Δ19del) xenograft): 198 mm^3; Tumor volume Day 6 (PC-9 (Δ19del) xenograft): 54 mm^3; Tumor volume Day 9 (PC-9 (Δ19del) xenograft): 44 mm^3; Tumor volume Day 13 (PC-9 (Δ19del) xenograft): 36 mm^3; Tumor volume Day 16 (PC-9 (Δ19del) xenograft): 30 mm^3; Tumor volume Day 20 (PC-9 (Δ19del) xenograft): 37 mm^3; Tumor volume Day 23 (PC-9 (Δ19del) xenograft): 42 mm^3

Source: patent publication US11390625B2, “Aryl-phosphorus-oxygen compound as EGFR kinase inhibitor” (Chia Tai Tianqing Pharmaceutical Group Co., Ltd., priority 2017, dated 2022)
